{"source": "paper PMC8570331", "about": "“8-Hydroxyquinoline-Amino Acid Hybrids and Their Half-Sandwich Rh and Ru Complexes: Synthesis, Anticancer Activities, Solution Chemistry and Interaction with Biomolecules” (International Journal of Molecular Sciences, 2021)", "key": {"[1]": {"system": "pGEX-6P-1 plasmid DNA", "assay": "In vitro DNA cleavage analysis, agarose gel electrophoresis", "assay_type": "biochemical", "conditions": "50 ng plasmid, 0–100 µM compound, 37 °C, up to 72 h, pH 7.4", "protocol": "In this assay, both single-stranded and double-stranded cleavage can be detected using bacterial plasmid DNA since the plasmid changes from the intact superhelical (sc) conformation to open circular (oc) and linear over digestion, which can be well detected by agarose gel electrophoresis. […] The RhCp* complex behaved similarly up to 10 µM, whereas at 100 µM concentration, the superhelical DNA remained intact during the incubation period, although the disappearance of the open circular DNA line is seen after 72 h. The observed effect is clearly not related to DNA cleavage; since fragmentation or the appearance of linear DNA could not be seen, the supercoiled DNA form was still visible. We can assume that the decrease in intensity might be due to the competition for DNA between the concentrated complex and EB (that is used for the detection of DNA in the gel).\nBefore the measurements, the reaction buffer was treated with 5 mg/L Chelex-100 (Sigma-Aldrich) cation exchange resin for 30 min at 25 °C. This was followed by filtration of the buffer through 0.2 µm pore size sterile, non-pyrogenic/endotoxin-free non-cytotoxic PES filter (Sarstedt) under laminal flow. The tested compounds were dissolved in this filtered cation exchanged buffer. pGEX-6P-1 DNA was purified by GeneJET plasmid maxiprep kit (Thermo Scientific™, Waltham, MA, USA) and was treated with Chelex-100 resin and filtered as described previously, and was followed by buffer exchange of the DNA sample using Amicon 10K 0.5 mL filters (4 × 5 min, 14,000 g, 25 °C) to the filtered reaction buffer. […] Based on agarose gel electrophoresis, no genomic DNA contamination was detected, and the plasmid DNA is largely in superhelical conformation with a small fraction of open circular form. In a typical reaction, 10 µL aliquots containing 50 ng DNA and 0–100 µM compound were incubated at 37 °C from 0 h up to 3 days. The reaction mixture was immediately examined after incubation or frozen at −30 °C until the gel electrophoresis experiment. […] Images were recorded by a Uvitec BTS 20MS gel documentation system."}, "[2]": {"assay": "Proton dissociation and H2O/Cl- exchange constants of the complexes (UV-vis, 1H NMR)", "assay_type": "physicochemical", "conditions": "T = 25.0 °C; for logK′ (H2O/Cl−) conditional exchange constant: pH 7.4; for pKa1 of the complex / pKa2 of the complex: I = 0.2 M KNO3", "protocol": "In the basic pH range, both the UV-vis and ^1H NMR spectra recorded for the [M(arene)(H2O)3]^2+–ligand (1:1) systems reveal the further chemical transformation of the [M(arene)(HQCl-D-(h)ProH−1)(H2O)]^+ species. […] It should be noted that peaks of the p-cymene CH3 groups are doubled at pH > 10 (Figure S21b), indicating the loss of their symmetry due to the formation of the hydroxido complex, which probably blocks the free rotation of the arene ligand. Two pKa values were determined by both methods for each RuCym complex that is in good agreement (Table 3).\nThese deprotonation processes take place at somewhat higher pH in the case of the RhCp* complexes compared to the RuCym compounds; however, other differences were also observed.\nThus, only one pKa value could be computed (Table 3), which is rather assigned to the H2O → OH^− process. The peaks of the protons in the ^1H NMR spectra located nearby the metal center (both 8-hydroxyquinoline CH and CH3 protons of RhCp*) and the peaks of the homoproline moiety are shifted by increasing the pH (Figure S22b,c). […] Due to this side-reaction, no pKa values were calculated from the ^1H NMR spectra.\nBased on the determined pKa values of the complexes (Table 3), it can be concluded that at physiological pH all of them are present predominantly in their [M(arene)(HQCl-D-(h)ProH−1)(H2O)]^+ form. However, in the presence of chloride ions, the exchange of the aqua ligand to the halide ligand is possible. The water/chloride co-ligand exchange process was monitored spectrophotometrically at pH 7.4, as it was performed for other RuCym and RhCp* complexes in our previous works. […] It can be concluded that the RhCp* complexes have stronger chloride ion affinity. The coordination of the chloride ion changes the charge of the complex; thus, it will also influence lipophilicity. In order to characterize the hydrophilic/lipophilic character of the complexes, n-octanol/buffer aqueous solution partitioning was performed at pH 7.4. The measurements were performed at three kinds of chloride ion concentrations regarding different biofluids (4, 24 and 100 mM for nucleus, cytosol and blood, respectively). The calculated logD7.4 values can be found in Figure 8.\nAgilent Cary 8454 diode array spectrophotometer was utilized to obtain UV-vis spectra in the wavelength range 190–1100 nm. The path length (ℓ) was 1 cm in most cases (the actual ℓ is always indicated in the legends of the figures). The concentrations of the ligands and complexes were between 88 and 240 µM. For HSA and ct-DNA containing samples, complex concentrations were 100 µM, and 0.5 and 2 equiv. biomolecule were added for kinetic studies, respectively. Individual samples contained 0–20 µM HSA and 0–1.75 mM (nucleotide) ct-DNA. Spectra were always background corrected. The computer program HypSpec was used to obtain stability constants.\n(§1) Bruker Avance III HD Ascend 500 Plus instrument (Billerica, MA, USA) was used for NMR studies. ^1H NMR spectroscopic measurements were carried out with a WATERGATE water suppression pulse scheme in the presence of 10% (v/v) D2O in most cases. DSS internal standard was added to samples to obtain reference peaks. Complex concentrations were 0.5 mM or 1.0 mM, and 0.5 equiv. HSA was added. ^1H NMR titrations were carried out in the presence of 0.2 M KNO3. With the FHA model peptide, the measurements were performed at 0.5 or 1 mM metal complex concentrations, and 1:1, 1:2 or 2:1 peptide-to-metal complex ratios were applied. The computer program HypSpec was used to obtain stability constants."}, "[3]": {"system": "Ac-Phe–His–Ala-NH2 (FHA)", "assay": "Binding to the His model tripeptide FHA by 1H NMR", "conditions": "pH 7.4 (PBS’), 0.5 or 1 mM", "source_text": "The slow binding kinetics indicates coordination binding mode, and the monodentate coordination of a side chain donor of HSA takes place most likely by the replacement of the co-ligand water or chloride, while the original bidentate (N,O) ligand remains coordinated, as it was also reported to analogous high stability RuCym and RhCp* complexes.\nSimilar reaction rates with FHA were found for the HQCl-D-Pro and HQCl-D-hPro complexes, and the reaction with this simple oligopeptide is much faster compared to the HSA. Conditional stability constants determined for the complex-FHA ternary species by ^1H NMR spectroscopic measurements (exemplary spectra are presented in Figure S29) are shown in Table 4. […] In all, this oligopeptide model can serve as a good binding model for surface-exposed side chains, although it provides limited information about binding events at more deeply located binding pockets of HSA, where the role of secondary interactions might be more significant.\nas §1"}}, "note": "Entries after “also recorded” stand apart in the source; their conditions may differ. Marks after values point to notes of the source that are not given here.", "data": [{"smiles": "O=C(O)[C@H]1CCCCN1Cc1cc(Cl)c2cccnc2c1O", "note": "[HQCl-D-hPro, (R)-5-chloro-7-((homoproline-1-yl)methyl)8-hydroxyquinoline]", "values": [{"measurement": "DNA cleavage / DNA damage", "setting": "[1]", "value": "do not induce DNA cleavage; also recorded: No DNA damage was observed"}]}, {"smiles": "Cc1c(C)c(C)[c-](C)c1C.O=C(O)[C@H]1CCC[NH+]1Cc1cc(Cl)c2cccnc2c1[O-].[Cl-].[Cl-].[Rh+3]", "note": "[RhCp*–HQCl-D-Pro, [RhCp*(HQCl-D-Pro)Cl]Cl]", "values": [{"measurement": "logK′ (H2O/Cl−) conditional exchange constant", "setting": "[2]; UV-vis", "value": "1.72 ± 0.01"}, {"measurement": "pKa1 of the complex", "setting": "[2]; UV-vis, chloride-free", "value": "10.08 ± 0.02"}, {"measurement": "FHA logKFHA′", "setting": "[3]", "value": "4.4 ± 0.2"}]}, {"smiles": "Cc1c(C)c(C)[c-](C)c1C.O=C(O)[C@H]1CCCC[NH+]1Cc1cc(Cl)c2cccnc2c1[O-].[Cl-].[Cl-].[Rh+3]", "note": "[RhCp*–HQCl-D-hPro, [RhCp*(HQCl-D-hPro)Cl]Cl]", "values": [{"measurement": "pKa1 of the complex", "setting": "[2]; 1H NMR", "value": "9.82 ± 0.13 ^a"}, {"measurement": "pKa2 of the complex", "setting": "[2]; 1H NMR", "value": "10.06 ± 0.06 ^b"}, {"measurement": "logK′ (H2O/Cl−) conditional exchange constant", "setting": "[2]; UV-vis", "value": "1.79 ± 0.01"}, {"measurement": "pKa1 of the complex", "setting": "[2]; UV-vis, chloride-free", "value": "10.11 ± 0.02"}, {"measurement": "FHA logKFHA′", "setting": "[3]", "value": "4.5 ± 0.2"}, {"measurement": "DNA cleavage / DNA damage", "setting": "[1]", "value": "do not induce DNA cleavage"}]}, {"smiles": "Cc1ccc(C(C)C)cc1.O=C(O)[C@H]1CCC[NH+]1Cc1cc(Cl)c2cccnc2c1[O-].[Cl-].[Cl-].[Ru+2]", "note": "[RuCym–HQCl-D-Pro, [RuCym(HQCl-D-Pro)Cl]Cl]", "values": [{"measurement": "pKa1 of the complex", "setting": "[2]; 1H NMR", "value": "9.02 ± 0.07"}, {"measurement": "pKa2 of the complex", "setting": "[2]; 1H NMR", "value": "10.69 ± 0.06"}, {"measurement": "logK′ (H2O/Cl−) conditional exchange constant", "setting": "[2]; UV-vis", "value": "1.18 ± 0.01"}, {"measurement": "pKa1 of the complex", "setting": "[2]; UV-vis, chloride-free", "value": "8.96 ± 0.01"}, {"measurement": "pKa2 of the complex", "setting": "[2]; UV-vis, chloride-free", "value": "10.67 ± 0.01"}, {"measurement": "FHA logKFHA′", "setting": "[3]", "value": "4.4 ± 0.3"}]}, {"smiles": "Cc1ccc(C(C)C)cc1.O=C(O)[C@H]1CCCC[NH+]1Cc1cc(Cl)c2cccnc2c1[O-].[Cl-].[Cl-].[Ru+2]", "note": "[RuCym–HQCl-D-hPro, [RuCym(HQCl-D-hPro)Cl]Cl]", "values": [{"measurement": "pKa1 of the complex", "setting": "[2]; 1H NMR", "value": "8.77 ± 0.05"}, {"measurement": "pKa2 of the complex", "setting": "[2]; 1H NMR", "value": "10.13 ± 0.04"}, {"measurement": "logK′ (H2O/Cl−) conditional exchange constant", "setting": "[2]; UV-vis", "value": "1.28 ± 0.01"}, {"measurement": "pKa1 of the complex", "setting": "[2]; UV-vis, chloride-free", "value": "8.78 ± 0.01"}, {"measurement": "pKa2 of the complex", "setting": "[2]; UV-vis, chloride-free", "value": "10.03 ± 0.02"}, {"measurement": "FHA logKFHA′", "setting": "[3]", "value": "4.6 ± 0.2"}, {"measurement": "DNA cleavage / DNA damage", "setting": "[1]", "value": "do not induce DNA cleavage; also recorded: No DNA damage was observed"}]}]}
